Reference: patent US20050143472A1, “Novel treatment for pathologies associated with oxidative damage” (priority 2002, published 2005)
“Also recorded” adds a separate entry of the source. Where two headings read alike, the source gives them in different places.

Experiments:
mPAO [1] = target: T1, mPAO (Mus musculus, UniProt Q8C0L6); assay: Oxygraph assay of O2 consumption, progress-curve analysis; assay type: biochemical, murine; conditions: progress curves before and after catalase addition
T1 construct: the full length cDNA of mpao was released by Nde I and Hind III treatment, and ligated into Nde I and Hind III sites of pET29c; made in house; host or cells: E. coli BL21 GOLD (DE3), plasmid pET-MPAO (pET29c)
T1 sequence (Q8C0L6 whole entry E184K/L285S/R416L/R417S/Q419R/E451A/V490I/S491G/V497A): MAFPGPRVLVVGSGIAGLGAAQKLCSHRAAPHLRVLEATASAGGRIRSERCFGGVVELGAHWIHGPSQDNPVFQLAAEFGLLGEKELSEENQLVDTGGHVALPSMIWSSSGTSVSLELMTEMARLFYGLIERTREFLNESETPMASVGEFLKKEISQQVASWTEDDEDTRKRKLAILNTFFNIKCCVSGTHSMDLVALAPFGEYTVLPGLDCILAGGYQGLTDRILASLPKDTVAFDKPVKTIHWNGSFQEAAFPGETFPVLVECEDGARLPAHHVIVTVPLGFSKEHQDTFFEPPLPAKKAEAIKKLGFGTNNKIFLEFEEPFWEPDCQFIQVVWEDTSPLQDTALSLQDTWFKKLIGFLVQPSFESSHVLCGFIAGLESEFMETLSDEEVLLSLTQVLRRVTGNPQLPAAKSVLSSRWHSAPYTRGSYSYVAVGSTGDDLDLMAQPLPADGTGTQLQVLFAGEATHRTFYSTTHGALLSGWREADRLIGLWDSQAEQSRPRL
Method: Some assays (oxygraph assays) were carried out by directly monitoring O2 consumption in air-saturated buffer ([O2]=0.237 mM) or buffer saturated with pure O2 at 30° C. ([O2]=1.12 mM). The depletion of O2 was detected with a Yellow Springs Instruments, Inc. Model 53 Oxygen Monitor equipped with a Clark electrode. […] Following a published procedure (Goudar et al., Biochim. Biophys. Acta 1429:377-383 [1999]), the data were fitted to the integrated Mechaelis-Menton equation. The analyses were done using Maple VI (Windows 2000) software (Waterloo Maple, Inc.) running on a PC computer. […] Inhibition by the H2O2, formed as a product of polyamine oxidation by mPAO, was assessed by addition of 2 μL of a 30 mg/mL (30,000 units/mg) solution of catalase, after [O2] reached zero.
The catalase immediately converted each mole of H2O2 to 0.5 mol of O2 (since [O2]=1.12 mM for pure O2-saturated buffer, then [O2]=0.56 mM immediately after catalase addition). In the presence of catalase, O2 depletion should occur at 0.5× the rate as it does in the absence of catalase (unless H2O2 inhibition is operating). With catalase present, each molecule of O2 will be converted eventually to H2O (4-electron equivalents), rather than to H2O2 (2-electron equivalents).

mPAO [2] = target: T1, mPAO; assay: Steady-state kinetic spectrophotometric assay of mPAO (H2O2 formation); assay type: biochemical, murine; conditions: for kcat′ / KS′: apparent value; for kcat′: air-saturated 50 mM KH2PO4/KOH buffer pH 7.6, [O2] 237 μM; for inhibitor of mPAO (oxidation of N^1-acetyl-Spm) / substrate for mPAO (oxidation by mPAO): in words; for kcat′/KS′: specificity constant, air-saturated buffer pH 7.6; for KS′: air-saturated buffer pH 7.6, [O2] 237 μM
Method: In this example the methods used to examine mPAO steady state kinetics are described. Spectrophotometric assays were done at 30° C. in a potassium phosphate buffer (e.g., 50 mM KH2PO4/KOH buffer, pH 7.6 saturated in air or in pure oxygen), using a published procedure which provides a continuous monitor of the H2O2 produced (Holt et al., Anal. Biochem. 244:384-392 [1997]). These assays were done in 1 mL cuvette with 0.8 mL of solution containing varying amounts of substrate, 1 mM vanillic acid, 0.5 mM 4-aminopyrine, 4 units of horseradish peroxidase, and 0.1-0.2 μg of mPAO. The reactions were monitored at 498 nm with a UVIKON 840 spectrophotometer (KONTRON Instruments) for the formation of the quinoneimine dye (ε498=4,650 M^−1cm^−1 at pH 7.6), the condensation product of vanillic acid and oxidized 4-aminopyrine. The latter is produced from 4-aminopyrine by the action of horseradish peroxidase that has been oxidized by H2O2 (Holt et al., supra [1997]). The assays were done at 25° C. by varying the concentration of the amine substrate, while the oxygen concentration in the assay solution was constant at the air-saturating level of 237 μM. The data were fit, by nonlinear regression to steady-state kinetic equations (McIntire et al., Biochem. J. 228:325-335 [1985]), which provided the values, and standard deviations thereof, for kcat′, KS′ and kcat′/KS′ (=Q, the specificity constant). [formula]
The dissociation constants, KD, for these and other amines were estimated in the following manner. It was assumed that the competition was competitive, since in the presence of the inhibitors, at a saturating N^1-acetyl-Spm concentration, the rate of the reaction was equal to the value of the true kcat. It was also assumed that the mechanism is of the ping-pong type. Thus, the applicable steady-state equation is (Segal, Enzyme Kinetics, John Wiley & Sons, New York, pp. 606-625 [1975]): [formula]
On the left, kcat and KS are the steady-state parameters for N^1-acetyl-Spm (S), and I and KI (=KD), represent the inhibitor and its inhibition constant, respectively. KIO and KO are the inhibition constant and Michaelis constant for O2, respectively. The equation can be converted to the expression on the right side when: [formula]
The expressions for kcat′ and KS′ (at the fixed [O2]=[…]) are the same as those when the inhibitor is absent. Since the values of kcat′ and KS″ were predetermined, inhibition assays were carried out where [S]≈KS″, which, in the absence of I, would give a rate, ν≈0.5×kcat″. In these assay, for each inhibitor, [I] was adjusted so the apparent rate was somewhat less then 0.5 kcat′. In this situation, after substitution and rearrangement, Equation 1 reduces to: [formula]
Since [I] and kcat′ are known, and ν is the measured rate in the presence of the inhibitor, the value of KI′ can be estimated. It is assumed that these apparent KI′ are good approximations of the true KI (=KD) values. […] The estimated KI′ values provided in Table 1, are the averages of these four values. If the reactions of the polyamine substrates and O2 with mPAO obeys a ping-pong type mechanism, the apparent values, kcat′/KS′, are equal to the true kcat/KS values.

[3] = apparent, inhibition of N^1-acetyl-Spm oxidation, average of four inhibitor concentrations, read-out: KI′ = KD

Row | Structure (SMILES) | inhibition of mPAO by product H2O2 (mPAO [1]) | kcat′ (mPAO [2]) | Ki (mPAO [2]; [3]) | inhibitor of mPAO (oxidation of N^1-acetyl-Spm) (mPAO [2]) | substrate for mPAO (oxidation by mPAO) (mPAO [2]; listed as N-(3-Aminopropyl)-1,10-diaminodecane) | substrate for mPAO (oxidation by mPAO) (mPAO [2]; listed as N-(3-aminopropyl)-1,10-diaminodecane) | kcat′/KS′ (mPAO [2]) | KS′ (mPAO [2]) | substrate for mPAO (oxidation by mPAO) (mPAO [2]) | KI′ = KD (mPAO [2]; apparent, inhibition of N^1-acetyl-Spm oxidation, average of four inhibitor concentrations) | Ki (mPAO [2])
1 | OO [H2O2, hydrogen peroxide] | inhibition does not occur | – | – | – | – | – | – | – | – | – | –
2 | NCCCCCCCCCCNCCCN [N-(3-aminopropyl) 1,10 decanediamine, N-(3-Aminopropyl)-1,10-diaminodecane] | – | 0 s⁻¹ | 35 µM | good inhibitor of mPAO | not oxidized by mPAO | not to be a PAO substrate | 0 M⁻¹ s⁻¹ | – | – | – | –
3 | CCNCCCNCCCNCCCNCC [N^1,N^11-diethyl-nor-Spm, N^1,N^11-bis[ethyl]norspermine] | – | 1.93 ± 0.03 s⁻¹ | – | – | – | – | (1.27 ± 0.03) × 10^4 M^−1sec^−1 | 157 ± 7 µM | very good substrates | – | –
4 | CCNCCCNCCCCNCCCNCC [N^1,N^12-diethyl-Spm, N^1,N^12-bis[ethyl]spermine] | – | 0.415 ± 0.012 s⁻¹ | – | – | – | – | (2.77 ± 0.13) × 10^3 M^−1sec^−1 | 150 ± 10 µM | very good substrates | – | –
5 | CC(=O)NCCCCNCCCN [N^8-acetyl-Spd] | – | 0 s⁻¹ | 70 µM | – | – | – | 0 M⁻¹ s⁻¹ | 0 µM | not oxidized by mPAO | – | –
6 | NCCCCN [Put, putrescine] | – | 0 s⁻¹ | 1000 µM | inhibitors | – | – | 0 M⁻¹ s⁻¹ | 0 µM | – | – | –
7 | NCCCCNCCCN [Spd, spermidine] | – | 0 s⁻¹ | 190 µM | inhibitors | – | – | 0 M⁻¹ s⁻¹ | 0 µM | poor substrates for mPAO | – | –
8 | NCCCNCCCCNCCCN [Spm, spermine] | – | – | 750 µM | inhibitors | – | – | – | 716 ± 33 µM | poor mPAO substrate; also recorded: poor substrates for mPAO | – | –
9 | NCc1ccccc1 [benzylamine] | – | 0 s⁻¹ | – | not | – | – | 0 M⁻¹ s⁻¹ | 0 µM | – | ∞ (infinity) | –
10 | N=C(N)NCCCCCCCCCCNC(=N)N [synthalin, 1,10-bisguanidinodecane] | – | 0 s⁻¹ | – | extremely potent inhibitor of mPAO | – | – | 0 M⁻¹ s⁻¹ | 0 µM | – | – | 0.05 µM
